Assay results reported in US10208033B2, “β-carboline, dihydro-β-carboline and tetrahydro-β-carboline alkaloid derivatives and preparation methods same and use in aspects of preventing and treating plant viruses, fungicides and insecticides” (NANKAI UNIVERSITY, priority 2013, dated 2019).
Where two headings read alike, the source gives them in different places.

Key:
[1] = system: tobacco mosaic virus (TMV); assay: Anti-TMV in vitro effect (half-leaf soaking); format: cell-based, tobacco mosaic virus (host Nicotiana tabacum L.cv.Xanthi NN)
[2] = system: tobacco mosaic virus (TMV); assay: Anti-TMV in vivo inactivation; parameters: species or system tobacco mosaic virus (host Nicotiana tabacum L.cv.Xanthi NN)
[3] = system: tobacco mosaic virus (TMV); assay: Anti-TMV in vivo therapeutic effect; parameters: species or system tobacco mosaic virus (host Nicotiana tabacum L.cv.Xanthi NN)
[4] = system: tobacco mosaic virus (TMV); assay: Anti-TMV in vivo protective effect; parameters: species or system tobacco mosaic virus (host Nicotiana tabacum L.cv.Xanthi NN)
cucumber fusarium wilt = assay: Fungicidal (bactericidal) activity in vitro, PDA colony diameter; format: cell-based; details: 50 mg/kg
Cercospora arachidicola = assay: as above; format: cell-based; details: 50 mg/kg
Macrophoma kawatsukai = assay: as above; format: cell-based; details: 50 mg/kg
Alternaria solani = assay: as above; format: cell-based; details: 50 mg/kg
Fusarium graminearumt = assay: microbe, parasite or virus in culture; format: cell-based; details: 50 mg/kg
potato late blight = assay: microbe, parasite or virus in culture; format: cell-based
Sclerotinia scleotiorum = assay: Fungicidal (bactericidal) activity in vitro, PDA colony diameter; format: cell-based; details: 50 mg/kg
Botrytis cinerea = assay: as above; format: cell-based; details: 50 mg/kg
Rhizoctonia solani = assay: as above; format: cell-based; details: 50 mg/kg
Phytophthora capsici = assay: as above; format: cell-based; details: 50 mg/kg
Fusarium fujikuroi = assay: as above; format: cell-based; details: 50 mg/kg
Rhizoctonia cereali = assay: as above; format: cell-based
Bipolaria maydis = assay: organism not typed; format: cell-based; details: 50 mg/kg
[5] = system: Colletotrichum orbiculare; assay: Fungicidal (bactericidal) activity in vitro, PDA colony diameter; format: cell-based; details: 50 mg/kg
armyworms = format: in vivo; details: concentration 600 mg/kg
cotton bollworms = assay: whole plant or invertebrate; details: concentration 600 mg/kg
Procedure: Experimental method of cotton bollworms: feed and drug mixing method: measure 3 mL of prepared solution and add it to about 27 g of newly prepared feed, thereby obtaining needed concentration through dilution by 10 times.

mosquito larvae = assay: whole plant or invertebrate; details: 24 h
Outline: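 Early fourth-instar Culex pipiens pallens larvae from an indoor colony, 10 per beaker, exposed to test compound at 5 ppm in water, diluted from a 1000 ppm acetone mother solution. Blank: water containing 0.5 mL test solvent.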

corn borers = details: concentration 600 mg/kg

| SMILES | Relative inhibition rate (%) In vitro activity ([1]; treatment dose 100 μg/mL) [%] | Relative inhibition rate (%) In vitro activity ([1]; treatment dose 500 μg/mL) [%] | Relative inhibition rate (%) In vivo inactivation ([2]; treatment dose 100 μg/mL) [%] | Relative inhibition rate (%) In vivo inactivation ([2]; treatment dose 500 μg/mL) [%] | Relative inhibition rate (%) In vivo therapy ([3]; treatment dose 100 μg/mL) [%] | Relative inhibition rate (%) In vivo therapy ([3]; treatment dose 500 μg/mL) [%] | Relative inhibition rate (%) In vivo protection ([4]; treatment dose 100 μg/mL) [%] | Relative inhibition rate (%) In vivo protection ([4]; treatment dose 500 μg/mL) [%] | Bactericidal activity (%) Cucumber fusarium wilt (cucumber fusarium wilt) [%] | Bactericidal activity (%) Cercospora arachidicola (Cercospora arachidicola) [%] | Bactericidal activity (%) Macrophoma kawatsukai (Macrophoma kawatsukai) [%] | Bactericidal activity (%) Alternaria solani (Alternaria solani) [%] | Bactericidal activity (%) Fusarium graminearumt (Fusarium graminearumt) [%] | Bactericidal activity (%) potato late blight (potato late blight) [%] | Bactericidal activity (%) Sclerotinia scleotiorum (Sclerotinia scleotiorum) [%] | Bactericidal activity (%) Botrytis cinerea (Botrytis cinerea) [%] | Bactericidal activity (%) Rhizoctonia solani (Rhizoctonia solani) [%] | Bactericidal activity (%) Phytophthora capsici (Phytophthora capsici) [%] | Bactericidal activity (%) Fusarium fujikuroi (Fusarium fujikuroi) [%] | Bactericidal activity (%) Bipolaria maydis (Bipolaria maydis) [%] | further results |
| --- | --- | --- | --- | --- | --- | --- | --- | --- | --- | --- | --- | --- | --- | --- | --- | --- | --- | --- | --- | --- | --- |
| C[C@@H]1N[C@H](C(=O)NCCO)Cc2c1[nH]c1ccccc21 [Ib-18, (1S, 3S)—N-(2-ethoxyl)-1-methyl-2,3,4,9-tetrahydro-pyridino [3,4-b] indol-3-formamide] | 5.4 | 37.6 | 10 | 41.5 | 18.6 | 40 | 12.1 | 41 | 23.8 | 21.4 | 70.6 | 27.8 | 28.6 | 5.0 | 68.0 | 27.3 | 35.7 | 36.4 | 35.7 | 26.3 | Bactericidal activity (%) Rhizoctonia cereali (Rhizoctonia cereali; 50 mg/kg): 53.1%; Bactericidal activity (%) Colletotrichum orbiculare [5]: 23.8%; Armyworm Mortality (%) (armyworms): 5%; Cotton bollworm Mortality (%) (cotton bollworms): 5%; Mosquito larvae Mortality (%) (mosquito larvae; concentration 10 mg/kg): 10%; Corn borer Mortality (%) (corn borers): 5% |
| C[C@@H]1N[C@H](C(=O)NN=Cc2ccc(N(C)C)cc2)Cc2c1[nH]c1ccccc21 [Ic-3, (1S, 3S)—N′-(4-dimethylaminobenzylidene)-1-methyl-2,3,4,9-tetrahydropyridino [3,4-b] indol-3-formylhydrazine] | 20.4 | 56.8 | 25 | 64.5 | 23.1 | 60.4 | 18.9 | 62.4 | 38.5 | 76.5 | 97.2 | 65.0 | 31.0 | 72.0 | 41.2 | 72.7 | 63.2 | 78.9 | 35.7 | 64.0 | Bactericidal activity (%) Rhizoctonia cereali (Rhizoctonia cereali; 50 mg/kg): 96.1%; Bactericidal activity (%) Colletotrichum orbiculare [5]: 48.1%; Armyworm Mortality (%) (armyworms): 25%; Cotton bollworm Mortality (%) (cotton bollworms): 40%; Mosquito larvae Mortality (%) (mosquito larvae; concentration 10 mg/kg): 55%; Corn borer Mortality (%) (corn borers): 30% |
| C[C@@H]1N[C@H](C(=O)NN=Cc2ccc([N+](=O)[O-])cc2)Cc2c1[nH]c1ccccc21 [Ic-4, (1S, 3S)—N′-(4-nitrobenzylidene)-1-methyl-2,3,4,9-tetrahydropyridino [3,4-b] indol-3-formylhydrazine] | 19.6 | 62.8 | 27.4 | 58.3 | 20.8 | 57.1 | 21.4 | 61.5 | 38.5 | 58.8 | 72.2 | 45.0 | 58.6 | 52.0 | 88.2 | 72.7 | 59.2 | 78.9 | 42.9 | 60.0 | Bactericidal activity (%) Rhizoctonia cereali (Rhizoctonia cereali; 50 mg/kg): 88.2%; Bactericidal activity (%) Colletotrichum orbiculare [5]: 48.1%; Armyworm Mortality (%) (armyworms): 30%; Cotton bollworm Mortality (%) (cotton bollworms): 35%; Mosquito larvae Mortality (%) (mosquito larvae; concentration 10 mg/kg): 65%; Corn borer Mortality (%) (corn borers): 35% |
| C[C@@H]1N[C@H](C(=O)NN=Cc2ccc(Cl)cc2Cl)Cc2c1[nH]c1ccccc21 [Ic-6, (1S, 3S)—N′-(2,4-dichlorobenzylidene)-1-methyl-2,3,4,9-tetrahydropyridino [3,4-b] indol-3-formylhydrazine] | 20.1 | 56.8 | 28.5 | 66.7 | 31.5 | 60.4 | 18.6 | 57.2 | 27.3 | 45.5 | 48.5 | 42.9 | 53.8 | 39.1 | 46.2 | 52.8 | 45.8 | 60.6 | 47.1 | 56.0 | Bactericidal activity (%) Rhizoctonia cereali (Rhizoctonia cereali): 56.8%; Bactericidal activity (%) Colletotrichum orbiculare [5]: 60.0%; Armyworm Mortality (%) (armyworms): 45%; Cotton bollworm Mortality (%) (cotton bollworms): 35%; Mosquito larvae Mortality (%) (mosquito larvae; concentration 5 mg/kg): 20%; Mosquito larvae Mortality (%) (mosquito larvae; concentration 10 mg/kg): 100%; Corn borer Mortality (%) (corn borers): 40% |
| COc1ccc(C=NNC(=O)[C@@H]2Cc3c([nH]c4ccccc34)[C@H](C)N2)cc1 [Ic-8, (1S, 3S)—N′-(4-methoxybenzylidene)-1-methyl-2,3,4,9-tetrahydropyridino [3,4-b] indol-3-formylhydrazine] | 28.7 | 62.5 | 30.4 | 69.1 | 34.8 | 66.4 | 31.8 | 70 | 23.1 | 64.7 | 72.2 | 30.0 | 65.5 | 52.0 | 94.1 | 59.1 | 59.2 | 73.7 | 64.3 | 68.0 | Bactericidal activity (%) Rhizoctonia cereali (Rhizoctonia cereali; 50 mg/kg): 84.3%; Bactericidal activity (%) Colletotrichum orbiculare [5]: 55.6%; Armyworm Mortality (%) (armyworms): 20%; Cotton bollworm Mortality (%) (cotton bollworms): 35%; Mosquito larvae Mortality (%) (mosquito larvae; concentration 10 mg/kg): 35%; Corn borer Mortality (%) (corn borers): 15% |
| COc1cccc(C=NNC(=O)[C@@H]2Cc3c([nH]c4ccccc34)[C@H](C)N2)c1 [Ic-9, (1S, 3S)—N′-(3-methoxybenzylidene)-1-methyl-2,3,4,9-tetrahydropyridino [3,4-b] indol-3-formylhydrazine] | 13.2 | 53.2 | 22.1 | 59.2 | 16.5 | 54 | 20.6 | 54.7 | 34.6 | 58.8 | 69.4 | 65.0 | 41.4 | 40.0 | 88.2 | 68.2 | 68.4 | 81.6 | 57.1 | 48.0 | Bactericidal activity (%) Rhizoctonia cereali (Rhizoctonia cereali; 50 mg/kg): 92.2%; Bactericidal activity (%) Colletotrichum orbiculare [5]: 40.7%; Armyworm Mortality (%) (armyworms): 35%; Cotton bollworm Mortality (%) (cotton bollworms): 30%; Mosquito larvae Mortality (%) (mosquito larvae; concentration 10 mg/kg): 75%; Corn borer Mortality (%) (corn borers): 40% |
